{
  "source": "patent US20180369143A1",
  "about": "“METAL COMPLEXED THERAPEUTIC AGENTS AND LIPID-BASED NANOPARTICULATE FORMULATIONS THEREOF” (BRITISH COLUMBIA CANCER AGENCY BRANCH, priority 2015, published 2018)",
  "key": {"U251 (glioblastoma line)": {"test_system": "U251 (glioblastoma line)", "test": "72 h cytotoxicity, IN CELL Analyzer, U251 cells", "assay_type": "cell-based, human", "experimental": "The U251MG glioblastoma cell line (formerly known as U-373 MG) was originally obtained from American Type Culture Collection (Manassas, Va.) and was used for a maximum of fifteen passages. […] U87, U251MG^O, A549 and MDA231-BR cells were maintained in DMEM (Gibco) supplemented with 2 mM L-glutamine (Gibco) and 10% fetal bovine serum (Gibco). […] All cells were maintained at 37° C. and 5% CO2 The cells were seeded into 384 well plates and allowed to grow for 24 hrs and then treated as specified for 72 hours. To assess the cytotoxic effects of the indicated compounds in adherent cell lines, the cells were stained with Hoescht 33342 and ethidium homodimer I for total and dead cell counts, respectively. Twenty minutes later, the cells were imaged using an In Cell Analyzer 2200 and cell viability was measured based on viable nuclei count."}, "A549 (lung cancer line)": {"test_system": "A549 (lung cancer line)", "test": "72 h cytotoxicity, A549 cells", "assay_type": "cell-based, human", "procedure": "(§1) For studies with DDC, the cell lines U87, and A549 were obtained from ATCC, HBEpC (Human Bronchial Epithelial Cells) was obtained from Cell Applications (San Deigo, Calif.) and MDA-231-BR was from the NIH/NCI. The U251MG glioblastoma cell line (formerly known as U-373 MG) was originally obtained from American Type Culture Collection (Manassas, Va.) and was used for a maximum of fifteen passages. Subsequently, the U251MG was obtained from Sigma-Aldrich (product number 09063001). […] Both cell lines are now being maintained as separate lines U251MG^O (original line) and U251MG^SA (Sigma-Aldrich). […] Twenty minutes later, the cells were imaged using an In Cell Analyzer 2200 and cell viability was measured based on viable nuclei count. For the suspension cell line MV-4-11, cells were incubated with the PrestoBlue reagent (Life Technologies) at 37° C. and 5% CO2 for 1 hour, after which cell viability was evaluated based on metabolic activity as measured with the FLUOstar OPTIMA microplate reader (BMG Labtech).\n(§2) The anticancer activity of clioquinol (CQ) in cancer lines through copper dependent and independent pathways was examined. […] Cell viability was assessed based on loss of plasma membrane integrity 72 hours following treatment. Total cell count and dead cell count were determined using Hoechst 33342 and ethidium homodimer staining, respectively. […]"}, "MV-4-11 (leukemia) cells": {"test_system": "MV-4-11 (leukemia) cells", "test": "72 h cytotoxicity (PrestoBlue), MV-4-11 cells", "assay_type": "cell-based, human", "procedure": "as §1, with “Labtech). […]” for “Labtech).”\nas §2"}, "[1]": {"test_system": "A2780-S (human ovarian carcinoma, platinum sensitive)", "test": "72 h cytotoxicity, IN CELL Analyzer, A2780-S cells", "assay_type": "cell-based", "procedure": "FIG. 26 Clioquinol metal complex cytotoxicity in A2780-S (ovarian cancer) cells. (A) Cytotoxicity curves for CQ (-●-), Cu(CQ)2 (-▪-) and Zn(CQ)2 (-♦-) were obtained using the INCELL analyzer where viability was assessed based on loss of plasma membrane integrity 72 hours following treatment; i.e., total cell count and dead cell count were determined using Hoechst 33342 and ethidium homodimer staining, respectively. Results are given as mean ±SEM (B) IC50 values of CQ and metal complexes in A2780-S (IC50±95% CI).\nThe anticancer activity of clioquinol (CQ) in cancer lines through copper dependent and independent pathways was examined. Both CQ (-●-) and Cu(CQ)2 (-▪-) were dissolved in DMSO and diluted to a final concentration of <0.5% (at higher concentrations (>100 μM) of Cu(CQ)2, precipitated drug could be seen under the microscope). A2780-S (human ovarian carcinoma, platinum sensitive), A2780-CP (human ovarian carcinoma, platinum insensitive) as well as A549 (human lung cancer), U251 (human glioblastoma) cytotoxicity curves (FIG. 22 A-D) were obtained with the IN CELL Analyzer 2200. Cell viability was assessed based on loss of plasma membrane integrity 72 hours following treatment. Total cell count and dead cell count were determined using Hoechst 33342 and ethidium homodimer staining, respectively. […]"}, "[2]": {"test_system": "A2780-CP (human ovarian carcinoma, platinum insensitive)", "test": "72 h cytotoxicity, IN CELL Analyzer, A2780-CP cells", "assay_type": "cell-based", "procedure": "The anticancer activity of clioquinol (CQ) in cancer lines through copper dependent and independent pathways was examined. Both CQ (-●-) and Cu(CQ)2 (-▪-) were dissolved in DMSO and diluted to a final concentration of <0.5% (at higher concentrations (>100 μM) of Cu(CQ)2, precipitated drug could be seen under the microscope). A2780-S (human ovarian carcinoma, platinum sensitive), A2780-CP (human ovarian carcinoma, platinum insensitive) as well as A549 (human lung cancer), U251 (human glioblastoma) cytotoxicity curves (FIG. 22 A-D) were obtained with the IN CELL Analyzer 2200. Cell viability was assessed based on loss of plasma membrane integrity 72 hours following treatment. Total cell count and dead cell count were determined using Hoechst 33342 and ethidium homodimer staining, respectively. The CQ cytotoxicity curve in MV-4-11 (human leukemia) was generated using PrestoBlue reagent to establish cell viability through metabolic activity."}, "U87 glioblastoma cells": {"test_system": "U87 glioblastoma cells", "test": "cells", "assay_type": "cell-based", "details": "for IC50: Homo sapiens, U-87 MG, absence of copper, 72 h", "procedure": "For studies with DDC, the cell lines U87, and A549 were obtained from ATCC, HBEpC (Human Bronchial Epithelial Cells) was obtained from Cell Applications (San Deigo, Calif.) and MDA-231-BR was from the NIH/NCI. The U251MG glioblastoma cell line (formerly known as U-373 MG) was originally obtained from American Type Culture Collection (Manassas, Va.) and was used for a maximum of fifteen passages. Subsequently, the U251MG was obtained from Sigma-Aldrich (product number 09063001). […] Both cell lines are now being maintained as separate lines U251MG^O (original line) and U251MG^SA (Sigma-Aldrich). U87, U251MG^O, A549 and MDA231-BR cells were maintained in DMEM (Gibco) supplemented with 2 mM L-glutamine (Gibco) and 10% fetal bovine serum (Gibco). HBEpC were grown in bronchial/tracheal epithelial growth medium obtained from Cell Applications and were used for a maximum of three passages. All cells were maintained at 37° C. and 5% CO2 The cells were seeded into 384 well plates and allowed to grow for 24 hrs and then treated as specified for 72 hours. To assess the cytotoxic effects of the indicated compounds in adherent cell lines, the cells were stained with Hoescht 33342 and ethidium homodimer I for total and dead cell counts, respectively. Twenty minutes later, the cells were imaged using an In Cell Analyzer 2200 and cell viability was measured based on viable nuclei count. For the suspension cell line MV-4-11, cells were incubated with the PrestoBlue reagent (Life Technologies) at 37° C. and 5% CO2 for 1 hour, after which cell viability was evaluated based on metabolic activity as measured with the FLUOstar OPTIMA microplate reader (BMG Labtech).\nCytotoxicity results were obtained with an IN CELL™ Analyzer in U87 glioblastoma cells. Cell viability was assessed based on detection of plasma membrane integrity 72 hours following treatment. Total and dead cell counts were determined using Hoeschst 33342 and ethidium homodimer staining."}, "[3]": {"test_system": "H460 (non-small cell lung cancer)", "test": "72-hour cytotoxicity assay, H460 cells", "assay_type": "cell-based"}, "[4]": {"test_system": "MV-4-11, HCT116WT, HCT116B18 and HCT116B46 cells", "test": "Cytotoxicity IC50 comparison of CX5461 with metal salts in a cell panel", "assay_type": "cell-based", "procedure": "as §1, with “(Sigma-Aldrich). U87, U251MG^O, A549 and MDA231-BR cells were maintained in DMEM (Gibco) supplemented with 2 mM L-glutamine (Gibco) and 10% fetal bovine serum (Gibco). HBEpC were grown in bronchial/tracheal epithelial growth medium obtained from Cell Applications and were used for a maximum of three passages.” for “(Sigma-Aldrich).”, “Labtech). […]” for “Labtech).”"}, "[5]": {"test": "Plasma elimination of CX5461, free versus liposomal", "assay_type": "in vivo", "details": "within 1 hour of injection", "experimental": "Cu(DDC)2 was measured by using Cu as a surrogate marker. Samples were diluted in 0.1% HNO3 and subsequently the Cu concentration was measured using AAS (AAnalyst600, Perkin Elmer) as described above. Plasma Cu was corrected using untreated CD-1 mouse plasma as a blank. […] All other compounds were measured using HPLC as summarized below using a Waters Alliance HPLC Module 2695 and photodiode array detector model 996 and Empower 2 Software. […] Similarly, the quantification of CX5461 was performed in acidified methanol to dissociate the complex and CX5461 was measured at 300 nm following separation on a Luna C18 column (5 μm, 4.6×150 mm). The mobile phase contained a 1:1.2 mixture of 0.1% TFA in water and 0.1% TFA in methanol. A 5 μL sample volume was injected, the flow rate was set at 1 mL/min and the column temperature was 35° C."}, "[6]": {"test": "Solubility of quercetin in water and HEPES buffer saline", "assay_type": "physicochemical", "procedure": "(or 22° C.) for 60 minutes in 2 mL of the respective buffers. […] The time points for dissolution were 5, 10, 15, 30 and 60 minutes.\n(38 μg/mL). A supersaturated solution of quercetin-HBS remained stable over a one-hour period once removed from heat."}, "[7]": {"test_system": "MDA-231BR (triple negative breast cancer line)", "test": "72 h cytotoxicity, IN CELL Analyzer, MDA-231BR cells", "assay_type": "cell-based", "details": "copper+DDC", "procedure": "as §1, with “(Sigma-Aldrich). U87, U251MG^O, A549 and MDA231-BR cells were maintained in DMEM (Gibco) supplemented with 2 mM L-glutamine (Gibco) and 10% fetal bovine serum (Gibco). HBEpC were grown in bronchial/tracheal epithelial growth medium obtained from Cell Applications and were used for a maximum of three passages.” for “(Sigma-Aldrich).”"}, "[8]": {"test_system": "normal human bronchial epithelial cells HBEpC", "test": "72 h cytotoxicity, normal bronchial epithelial cells", "assay_type": "cell-based", "procedure": "as §1, with “(Sigma-Aldrich). U87, U251MG^O, A549 and MDA231-BR cells were maintained in DMEM (Gibco) supplemented with 2 mM L-glutamine (Gibco) and 10% fetal bovine serum (Gibco). HBEpC were grown in bronchial/tracheal epithelial growth medium obtained from Cell Applications and were used for a maximum of three passages.” for “(Sigma-Aldrich).”"}, "[9]": {"test": "Aqueous solubility of metal complexes (qualitative)", "assay_type": "physicochemical"}},
  "note": "Entries after “also recorded” stand apart in the source; their conditions may differ.",
  "data": [
    {"smiles": "Oc1c(I)cc(Cl)c2cccnc12", "note": "[CQ, Clioquinol]", "values": [
      {"measurement": "copper dependence of CQ activity", "setting": "U251 (glioblastoma line)", "value": "copper independent"},
      {"measurement": "copper dependence of CQ activity", "setting": "A549 (lung cancer line)", "value": "copper dependant"},
      {"measurement": "copper dependence of CQ activity", "setting": "MV-4-11 (leukemia) cells", "value": "copper independent"},
      {"measurement": "copper dependence of CQ activity", "setting": "[1]", "value": "copper dependant"},
      {"measurement": "copper dependence of CQ activity", "setting": "[2]", "value": "copper dependant"}
    ]},
    {"smiles": "CCN(CC)C(=S)S", "note": "[DDC, Diethyldithiocarbamate]", "values": [
      {"measurement": "IC50", "setting": "U87 glioblastoma cells", "value": "> 10000", "unit": "nM"}
    ]},
    {"smiles": "CCN(CC)C(=S)SSC(=S)N(CC)CC", "note": "[DSF, Disulfiram]", "values": [
      {"measurement": "shift in cytotoxicity in the presence of copper", "setting": "U87 glioblastoma cells", "value": "2 orders of magnitude"},
      {"measurement": "IC50", "setting": "U87 glioblastoma cells", "value": "> 10000", "unit": "nM"}
    ]},
    {"smiles": "Cc1cnc(CNC(=O)c2c(=O)c3ccc(N4CCCN(C)CC4)nc3n3c2sc2ccccc23)cn1", "note": "[CX5461]", "values": [
      {"measurement": "effect of equimolar copper on anti-cancer activity", "setting": "[3]", "value": "does not alter"},
      {"measurement": "effect of equimolar copper on anti-cancer activity", "setting": "MV-4-11 (leukemia) cells; 72 h", "value": "does not alter"},
      {"measurement": "activity (IC50) versus low pH preparation of metal-free compound", "setting": "[4]; combined with CuSO4, dissolution at pH 7.4", "value": "statistically similar"},
      {"measurement": "activity (IC50) versus low pH preparation of metal-free compound", "setting": "[4]; combined with ZnSO4, dissolution at pH 7.4", "value": "statistically similar"},
      {"measurement": "compound removed from circulation", "setting": "[5]", "value": 96, "unit": "%"}
    ]},
    {"smiles": "O=c1c(O)c(-c2ccc(O)c(O)c2)oc2cc(O)cc(O)c12", "note": "[quercetin, Quercetin]", "values": [
      {"measurement": "solubility at 60 min", "setting": "[6]; 60 °C, water, thermodynamic from solid", "value": 12.3, "unit": "µg/mL"},
      {"measurement": "solubility", "setting": "[6]; 60 min", "value": 38, "unit": "µg/mL"},
      {"measurement": "solubility", "setting": "[6]; HBS, room temperature", "value": 7.78, "unit": "µg/mL"}
    ]},
    {"smiles": "CCN(CC)C(=S)[S-].CCN(CC)C(=S)[S-].[Cu+2]", "note": "[Cu(DDC)2]", "values": [
      {"measurement": "IC50", "setting": "U251 (glioblastoma line); copper+DDC", "value": 345, "unit": "nM"},
      {"measurement": "IC50", "setting": "[7]", "value": 329, "unit": "nM"},
      {"measurement": "IC50", "setting": "A549 (lung cancer line); copper+DDC", "value": 880, "unit": "nM"},
      {"measurement": "activity against normal cells", "setting": "[8]", "value": "little activity"},
      {"measurement": "solubility in water / aqueous solution", "setting": "[9]", "value": "highly insoluble; also recorded: almost completely insoluble"}
    ]}
  ]
}
